From patent publication US10085937B2, “Nasal drug products and methods of their use” (Adapt Pharma Limited, priority 2014, dated 2018)
Where two headings read alike, the source gives them in different places.

Tests used:
[1] = Safety of intranasal naloxone: nasal irritation, vital signs, ECG, clinical laboratory (Study 1); assay type: in vivo, human
Experimental: These vital signs and temperature were also measured at screening, clinic intake, one day after each dosing session and at follow-up. […] AEs were recorded from the start of study-drug administration until clinic discharge. […] Clinical laboratory measurements were done prior to the first drug administration and on the day of clinic release.
Statistical Analysis of Adverse Events: AEs were coded using the Medical Dictionary for Regulatory Activities (MedDRA), version 19. Preferred terms and are grouped by system, organ, class (SOC) designation. AEs are presented as a listing including the start date, stop date, severity, relationship, outcome, and duration.

[2] = for Cmax/D: GLSM, dose adjustment to 0.4 mg; for λz / Frel: mean
[3] = for Lambda z: harmonic mean; for Tmax: median; for λz: geometric mean (CV %)
[4] = test system: mouse; conditions: intravenous; cited from earlier work
[5] = test system: rat; conditions: intravenous; cited from earlier work
[6] = test system: newborn rats; conditions: acute subcutaneous; cited from earlier work
[7] = clinical; conditions: human, plasma; for AUC(0-t): AUC0-t; for AUC(0-t) / AUC(0-inf) / Cmax: geometric mean (CV %); for AUC(0-inf): AUC0-∞; for Tmax: Table 13
[8] = Safety of intranasal naloxone: adverse events, nasal irritation, vital signs, ECG (Study 2)
[9] = im, 0.4 mg, One Injection 0.4 mg IM
[10] = other: intranasal (IN), 2 mg, One Spray 2% (w/v) IN
[11] = other: intranasal (IN), 4 mg, One Spray 4% (w/v) IN
[12] = other: intranasal, 2 mg, One Spray 2% (w/v) IN
[13] = other: intranasal, 4 mg, One Spray 4% (w/v) IN
[14] = other: intranasal, 4 mg, Two Sprays 2% (w/v) IN
[15] = other: intranasal, 8 mg, Two Sprays 4% (w/v) IN

SMILES: C=CCN1CC[C@]23c4c5ccc(O)c4O[C@H]2C(=O)CC[C@@]3(O)[C@H]1C5 [naloxone, 17-allyl-4,5α-epoxy-3,14-dihydroxymorphinan-6-one]
- pharyngeal pain ([1]; 2 mg IN dose): One subject experienced mild transient (over 3 min) pharyngeal pain
- nasal irritation (erythema, edema, erosion) in the nasal cavity ([1]; IN 2 and 4 mg to both nostrils): No erythema, edema, erosion, or other sign was observed
- QTcF prolongation ([1]; Study 1): no evidence of QTcF prolongation
- vital signs, ECG, and clinical laboratory parameters ([1]; after naloxone administration, Study 1): did not reveal any clinically noteworthy changes
- Cmax/D ([2]; 0.4 mg IM): 0.755 ng/mL
- λz ([2]; 0.4 mg IM): 0.593 h⁻¹
- Frel ([2]; 2 mg IN vs IM): 0.571
- Cmax/D ([2]; 2 mg IN): 0.510 ng/mL
- λz ([2]; 2 mg IN): 0.588 h⁻¹
- Frel ([2]; 4 mg IN vs IM): 0.475
- Cmax/D ([2]; 4 mg IN): 0.466 ng/mL
- λz ([2]; 4 mg IN): 8.0 h⁻¹
- Lambda z ([3]; 0.4 mg IM, Female): 0.6140 h⁻¹
- Lambda z ([3]; 0.4 mg IM, Male): 0.5152 h⁻¹
- Tmax ([3]; 0.4 mg IM, Male): 30 min
- Lambda z ([3]; 0.4 mg IM): 0.5534 h⁻¹
- Lambda z ([3]; One 2% (w/v) IN, Female): 0.3978 h⁻¹
- Lambda z ([3]; One 2% (w/v) IN, Male): 0.3492 h⁻¹
- Lambda z ([3]; One 4% (w/v) IN, Female): 0.2946 h⁻¹
- Tmax ([3]; One 4% (w/v) IN, Female): 30 min
- Lambda z ([3]; One 4% (w/v) IN, Male): 0.3386 h⁻¹
- Tmax ([3]; One 4% (w/v) IN, Male): 30 min
- λz ([3]; One Injection 0.4 mg IM): 0.557 (25.9) 1/h
- λz ([3]; One Spray 2% (w/v) IN): 0.382 (34.9) 1/h
- λz ([3]; One Spray 4% (w/v) IN): 0.334 (29.5) 1/h
- Lambda z ([3]; Two 2% (w/v) IN, Female): 0.2796 h⁻¹
- Lambda z ([3]; Two 2% (w/v) IN, Male): 0.3122 h⁻¹
- Lambda z ([3]; Two 4% (w/v) IN, Female): 0.2994 h⁻¹
- Lambda z ([3]; Two 4% (w/v) IN, Male): 0.3407 h⁻¹
- λz ([3]; Two Sprays 2% (w/v) IN): 0.310 (34.5) 1/h
- λz ([3]; Two Sprays 4% (w/v) IN): 0.330 (32.4) 1/h
- Lambda z ([3]; one spray 2 mg 2% (w/v) IN): 0.3685 h⁻¹
- Lambda z ([3]; two sprays 4 mg 2% (w/v) IN): 0.2973 h⁻¹
- Lambda z ([3]; two sprays 8 mg 4% (w/v) IN): 0.3217 h⁻¹
- LD50 [4]: 150 ± 5 mg/kg
- LD50 [5]: 109 ± 4 mg/kg
- LD50 (95% CL) [6]: 260 (228-296) mg/kg
- AUC(0-t) [7, 9]: 1.72 ng·h/mL
- AUC(0-inf) [7, 9]: 1.76 ng·h/mL
- Cmax [7, 9]: 0.877 ng/mL
- Tmax [7, 9]: 22.8 min
- AUC(0-t) [7, 10]: 4.51 ng·h/mL
- AUC(0-inf) [7, 10]: 4.56 ng·h/mL
- AUC(0-t) [7, 11]: 7.87 ng·h/mL
- AUC(0-inf) [7, 11]: 7.95 ng·h/mL
- AUC(0-inf) ([7]; other: intranasal (IN), 8 mg, Two Sprays 4% (w/v) IN): 15.5 ng·h/mL
- Cmax [7, 12]: 2.92 ng/mL
- Tmax [7, 12]: 19.8 min
- Cmax [7, 13]: 4.83 ng/mL
- Cmax [7, 14]: 6.2 ng/mL
- Tmax [7, 13]: 30 min
- Tmax [7, 14]: 19.8 min
- Cmax [7, 15]: 9.7 ng/mL
- Tmax [7, 15]: 19.8 min
- adverse events: Dizziness ([8]; 0.4 mg Intramuscular Dose): 1
- adverse events: Headache ([8]; 0.4 mg Intramuscular Dose): 1
- adverse events: Nausea ([8]; 0.4 mg Intramuscular Dose): 1
- Events related to nasal irritation: Edema ([8]; 2 mg (2% w/v, one spray)): 2
- Events related to nasal irritation: Erythema ([8]; 2 mg (2% w/v, one spray)): 4
- Events related to nasal irritation: Other ([8]; 2 mg (2% w/v, one spray)): 1
- Events related to nasal irritation: Total ([8]; 2 mg (2% w/v, one spray)): 7
- adverse events: Nasal Pain ([8]; 2 mg (2% w/v, one spray)): 1
- Events related to nasal irritation: Edema ([8]; 4 mg (2% w/v, two sprays)): 0
- Events related to nasal irritation: Erythema ([8]; 4 mg (2% w/v, two sprays)): 1
- Events related to nasal irritation: Other ([8]; 4 mg (2% w/v, two sprays)): 0
- Events related to nasal irritation: Total ([8]; 4 mg (2% w/v, two sprays)): 1
- Events related to nasal irritation: Edema ([8]; 4 mg (4% w/v, one spray)): 2
- Events related to nasal irritation: Erythema ([8]; 4 mg (4% w/v, one spray)): 1
- Events related to nasal irritation: Other ([8]; 4 mg (4% w/v, one spray)): 0
- Events related to nasal irritation: Total ([8]; 4 mg (4% w/v, one spray)): 3
- Events related to nasal irritation: Edema ([8]; 8 mg (4% w/v, two sprays)): 1
- Events related to nasal irritation: Erythema ([8]; 8 mg (4% w/v, two sprays)): 0
- Events related to nasal irritation: Other ([8]; 8 mg (4% w/v, two sprays)): 0
- Events related to nasal irritation: Total ([8]; 8 mg (4% w/v, two sprays)): 1
- adverse events: Headache ([8]; 8 mg (4% w/v, two sprays)): 1
- relation of nasal irritation to dose ([8]; IN 2 to 8 mg): did not appear to be positively related to the dose
- QTcF prolongation ([8]; Study 2): no evidence of QTcF prolongation
- vital signs, ECG, and clinical laboratory parameters ([8]; after naloxone administration, Study 2): did not reveal any clinically noteworthy changes
